The test system of one series is A2780. Briefly: Cytotoxicity propidium iodide assay, A2780. It counts as cell-based. The note with it: Homo sapiens; A2780 (ovarian), 48 hours treatment; read-out: IC50 Values in μM, C1a. A digest of the protocol: (§1)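 Compound exposure lasted 48 h at multiple concentrations, after an 18-24 h settling period at 37° C. with 5% CO2. Washed cells received propidium iodide ([…]) and went through an overnight freeze and thaw before fluorimetric reading; IC50 values came from percentages relative to non-treated cells.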

For a further series, the system named is PC3. Briefly: Cytotoxicity propidium iodide assay, PC3. It counts as cell-based, human. To be noted: Homo sapiens, PC-3; PC3 (prostate), 48 hours treatment; read-out: IC50 Values in μM, C2a. A digest of the protocol:
as §1

A further series concerns MDA MB 468. Briefly: Cytotoxicity propidium iodide assay, MDA MB 468. It is filed as cell-based. The note with it: Homo sapiens; MDA MB 468 (breast), 48 hours treatment; read-out: IC50 Values in μM, C3b. A digest of the protocol:
as §1

Another series relates to MCF7. Briefly: Cytotoxicity propidium iodide assay, MCF7. It counts as cell-based. To be noted: Homo sapiens; MCF7 (breast), 48 hours treatment; read-out: IC50 Values in μM, C3d. A digest of the protocol: as §1
For the next series, the system named is BxPC3. Briefly: Cytotoxicity propidium iodide assay, BxPC3. It is filed as cell-based. To be noted: Homo sapiens, BXPC-3; BxPC3 (pancreatic), 48 hours treatment; read-out: IC50 Values in μM, C4c. A digest of the protocol:
as §1

A further series concerns LN229. Briefly: Cytotoxicity propidium iodide assay, LN229. It is filed as cell-based. The note with it: Homo sapiens, LN-229; LN229 (glioblastoma), 48 hours treatment; read-out: IC50 Values in μM, C5a. The method, then: The assay was designed as in the reference, Anticancer Drugs, 2002, 13, 1-8, the disclosure of which is incorporated herein by reference for the teaching of the assay.
Cells from cell lines (ATCC) as mentioned in the table given below were seeded at a density of 3000 cells/well in a white opaque 96-well plate. Following incubation at 37° C./5% CO2 for a period of 18-24 hours, the cells were treated with various concentrations (stock solution was prepared in DMSO and subsequent dilutions were made in media as per ATCC guidelines) of the compounds of the present invention for a period of 48 hours. At the end of treatment, the culture medium was discarded, the cells were washed with 1×PBS and 200 μL of […] propidium iodide was added to each well. The plates were frozen at […] overnight. For analysis, the plates were warmed to RT, allowed to thaw and were read in PoleStar fluorimeter with the fluorescence setting. The percentage of viable cells in the non-treated set of wells was considered to be 100 and the percentage viability following treatment was calculated accordingly. IC50 values were calculated from graphs plotted using these percentages. IC50 values for certain compounds of present invention are depicted in Table 1 and % Inhibition of certain compounds of present invention are depicted in Table 2.

In series [1] the test system is IFN-γ. Briefly: Con-A-induced IFN-γ production from hPBMC. It counts as cell-based. To be noted: Homo sapiens, concanavalin A 1 μg/mL, 18 hours. The method, then: Con-A-Induced IFN-γ Production from hPBMC
Peripheral blood was collected from normal healthy volunteers after informed consent. Peripheral blood mononuclear cells (hPBMC) were harvested using Ficoll-Hypaque density gradient centrifugation (1.077 g/mL; Sigma Aldrich). hPBMCs were resuspended in RPMI 1640 culture medium (Gibco BRL, Pasley, UK) containing 10% FCS, 100 U/mL penicillin (Sigma Chemical Co. St Louis, Mo.) and […] streptomycin (Sigma Chemical Co. St Louis, Mo.) at 1×10^6 cells/mL. 1×10^5 hPBMCs/well were pre-treated with 0.025 μM of compounds of present invention or 0.5% DMSO (vehicle control) for 30 minutes at 37° C. Subsequently, these cells were stimulated with 1 μg/mL concanavalin A (Sigma Chemical Co., St. Louis, Mo.). Following 18 hours of incubation at 37° C., supernatants were collected and stored at −70° C. until assayed for human IFN-γ by ELISA as described by the manufacturer (OptiEIA ELISA sets, BD BioSciences). In every experiment, cyclosporin (1 μM) was used as a positive control for inhibiting induced IFN-γ production. In all experiments, the toxicity of test compounds was ascertained, in parallel, using the MTS (3-(4,5-dimethylthiazol-2-yl)-5-(3-carboxymethoxyphenyl)-2-(4-sulfonyl)-2H-tetrazolium) assay as described in Am. J. Physiol. Cell Physiol., 2003, 285, C813-C822.

Another series concerns TNF-α. Briefly: Anti-CD3 mAb and anti-CD28 mAb-induced cytokine production assay, TNF-α. The note with it: Homo sapiens, hPBMC, anti-CD3/anti-CD28, 18 hours. It is filed as cell-based. The method, then: (§2) Anti-CD3 mAb and Anti-CD28 mAb-Induced Cytokine Production Assay
(§3) Preparation of anti-CD3/anti-CD28 coated plates: 96 well plates were coated with goat anti-mouse IgG, Fc (Millipore) at a concentration of 16.5 μg/mL in coating buffer ([…] NaHCO3, 3.56 g Na2CO3, pH 9.5). Following overnight incubation at 4° C., the plates were washed and then incubated with anti-CD3 (3.5 μg/mL; R&D Systems) and anti-CD28 (35 ng/mL; R&D Systems) cocktail for 3 hours. Subsequently, the plates were washed, and used for hPBMC stimulation.
(§4) hPBMC stimulation: Peripheral blood was collected from normal healthy volunteers after informed consent. Peripheral blood mononuclear cells (hPBMC) were harvested using Ficoll-Hypaque density gradient centrifugation (1.077 g/mL; Sigma Aldrich). hPBMCs were resuspended in RPMI 1640 culture medium (Gibco BRL, Pasley, UK) containing 10% FCS, 100 U/mL penicillin (Sigma Chemical Co. St Louis, Mo.) and […] streptomycin (Sigma Chemical Co. St Louis, Mo.) at 1.25×10^6 cells/mL of assay medium. 2.5×10^5 hPBMCs were added per well of 96-well plate coated with or without anti-CD3/anti-CD28 mAbs. Simultaneously, 0.025 μM of compounds of the present invention or 0.5% DMSO (vehicle control) were added to appropriate wells. The cells were then incubated for 18 hours at 37° C., 5% CO2 following which supernatants were collected, stored at […] and assayed later for TNF-α, IL-6 and IFN-γ by ELISA (OptiEIA ELISA sets; BD Biosciences). In every experiment, each condition was run in triplicate wells. In all experiments, the toxicity of test compounds was ascertained, in parallel, using the MTS (3-(4,5-dimethylthiazol-2-yl)-5-(3-carboxymethoxyphenyl)-2-(4-sulfonyl)-2H-tetrazolium) assay as described in Am. J. Physiol. Cell Physiol., 2003, 285, C813-C822.

Series [2] relates to IFN-γ. Briefly: Anti-CD3 mAb and anti-CD28 mAb-induced cytokine production assay, IFN-γ. It is filed as cell-based. To be noted: Homo sapiens, hPBMC, anti-CD3/anti-CD28, 18 hours. The method, then: as §2, §3, §4
A further series deals with hPBMC. Briefly: MTS toxicity assay in parallel to anti-CD3/anti-CD28 cytokine assay. It counts as cell-based, human. The note with it: anti-CD3/anti-CD28 experiment. The method, then: as §4
(In general: Formazan colour is commonly taken as a measure of viable cells.)

The subject of another series is K562. Briefly: Cytotoxicity propidium iodide assay, K562. It counts as cell-based. To be noted: Homo sapiens; K562 (CML), 48 hours treatment; read-out: IC50 Values in μM, C6a. A digest of the protocol: as §1
The subject of another series is KU812/SR. Briefly: Cytotoxicity propidium iodide assay, KU812/SR. It counts as cell-based. The note with it: Homo sapiens; KU812/SR (CML), 48 hours treatment; read-out: IC50 Values in μM, C6c. A digest of the protocol: as §1

As usually defined, the IC50 is the concentration at which inhibition is half-maximal. For orientation: inhibition means the drop in the measured response relative to a control, in per cent. For `Cn1c(=O)n(-c2ccc(C(C)(C)C#N)nc2)c2c3cc(-c4cnc5ccccc5c4)ccc3ncc21` [Example 2, 2-Methyl-2-(5-(3-methyl-2-oxo-8-(quinolin-3-yl)-2,3-dihydro-1H-imidazo[4,5-c]quinolin-1-yl)pyridin-2-yl)propanenitrile], the IC50 in the series on A2780 was 0.024 µM; with PC3, 0.068 µM; with MDA MB 468, 0.3 µM; with MCF7 it was 0.09 µM; with BxPC3 it was 0.04 µM; in the series with LN229, 0.55 µM. Moreover, the inhibition at 0.025 µM was determined as 58% in the series on IFN-γ [1], 63% in the series on TNF-α and 71% with IFN-γ [2]. Besides, the “% Toxicity at 0.025 μM” value in the series with hPBMC was found to be 12%.
In the case of `Cn1c(=O)n(-c2ccc(C(C)(C)C#N)nc2)c2c3cc(-c4cnc(N)c(C(F)(F)F)c4)ccc3ncc21` [Example 3, 2-(5-(8-(6-Amino-5-(trifluoromethyl)pyridin-3-yl)-3-methyl-2-oxo-2,3-dihydro-1H-imidazo[4,5-c]quinolin-1-yl)pyridin-2-yl)-2-methylpropanenitrile], the IC50 in the series on A2780 was less than 0.005 µM; in the series on PC3, 0.005 µM; in the series with MDA MB 468 it was 0.06 µM; in the series on MCF7, 0.026 µM; with BxPC3, 0.01 µM; in the series on LN229, 0.056 µM. Also, the IC50 with K562 was 0.056 µM; in the series on KU812/SR, 0.19 µM. The inhibition at 0.025 µM came to 98% with IFN-γ [1], 92% with TNF-α and 93% with IFN-γ [2]. Moreover, the “% Toxicity at 0.025 μM” value with hPBMC was 24%.
With `CC(C)(C#N)c1ccc(-n2c(=O)n(CC#N)c3cnc4ccc(-c5cnc(N)c(C(F)(F)F)c5)cc4c32)cn1` [Example 16, 2-(5-(8-(6-Amino-5-(trifluoromethyl)pyridin-3-yl)-3-(cyanomethyl)-2-oxo-2,3-dihydro-1H-imidazo[4,5-c]quinolin-1-yl)pyridin-2-yl)-2-methylpropanenitrile], the IC50 came out at 0.013 µM with A2780; 0.025 µM with PC3; 0.013 µM with MDA MB 468; 0.03 µM with MCF7; 0.008 µM with BxPC3; 0.65 µM in the series on LN229. For the same molecule, the IC50 in the series with K562 amounted to 0.4 µM; with KU812/SR, 0.19 µM. Further, the inhibition at 0.025 µM in the series on IFN-γ [1] was 31%; with TNF-α, 81%; in the series with IFN-γ [2], 80%. In addition, the “% Toxicity at 0.025 μM” value with hPBMC is recorded as 0%.
`COc1ccc(-n2c(=O)n(C)c3cnc4ccc(-c5cnc(N)c(C(F)(F)F)c5)cc4c32)cn1` [Example 19, 8-(6-Amino-5-(trifluoromethyl)pyridin-3-yl)-1-(6-methoxypyridin-3-yl)-3-methyl-1H-imidazo[4,5-c]quinolin-2(3H)-one]: the IC50 with A2780 was less than 0.01 µM; in the series with PC3 it was 0.006 µM; with MDA MB 468 it was 0.18 µM; in the series with MCF7, 0.054 µM; with BxPC3, 0.016 µM; with LN229, 0.096 µM. The IC50 in the series with K562 was determined as 0.056 µM; in the series with KU812/SR, 0.06 µM. For the same molecule, the results for the inhibition at 0.025 µM with IFN-γ [1], with TNF-α and with IFN-γ [2] were 93%, 87% and 87%, respectively. Also, the “% Toxicity at 0.025 μM” value with hPBMC worked out at 19%.

The values above are taken from patent US20130310374A1, “Substituted Imidazoquinoline Derivatives” (PIRAMAL ENTERPRISES LIMITED`, priority 2010, published 2013).
